Assay: xn = mol fraction of the nth substance listed
Conditions: 100 kPa, Liquid, Vibrating tube method

CCC(C)(C)O [2-methylbutan-2-ol] + O
mass density [kg/m3]
Conditions | x1 = 0.00122 | x1 = 0.00255 | x1 = 0.00412 | x1 = 0.00507 | x1 = 0.00607 | x1 = 0.0079 | x1 = 0.00994 | x1 = 0.01252 | x1 = 0.01488 | x1 = 1
273.65 K | 999.033 | 998.16 | 997.224 | 996.687 | 996.151 | 995.216 | 994.277 | 993.23 | 992.364 | 826.7
274.15 K | 999.058 | 998.181 | 997.247 | 996.703 | 996.17 | 995.235 | 994.284 | 993.232 | 992.356 | 826.3
274.65 K | 999.08 | 998.206 | 997.266 | 996.721 | 996.184 | 995.25 | 994.296 | 993.233 | 992.353 | 825.8
275.15 K | 999.099 | 998.222 | 997.286 | 996.74 | 996.2 | 995.262 | 994.3 | 993.231 | 992.341 | 825.4
275.65 K | 999.114 | 998.237 | 997.295 | 996.749 | 996.207 | 995.267 | 994.301 | 993.227 | 992.328 | 824.9
276.15 K | 999.13 | 998.247 | 997.305 | 996.76 | 996.213 | 995.266 | 994.297 | 993.215 | 992.313 | 824.5
276.65 K | 999.132 | 998.253 | 997.309 | 996.765 | 996.216 | 995.269 | 994.293 | 993.203 | 992.291 | 824
277.15 K | 999.134 | 998.251 | 997.307 | 996.759 | 996.215 | 995.258 | 994.279 | 993.181 | 992.265 | 823.5
277.65 K | 999.129 | 998.246 | 997.299 | 996.748 | 996.2 | 995.243 | 994.261 | 993.157 | 992.23 | 823.1
278.15 K | 999.126 | 998.235 | 997.295 | 996.741 | 996.193 | 995.233 | 994.246 | 993.13 | 992.197 | 822.6
278.65 K | 999.113 | 998.23 | 997.279 | 996.728 | 996.177 | 995.217 | 994.22 | 993.102 | 992.159 | 822.2
279.15 K | 999.102 | 998.216 | 997.265 | 996.713 | 996.158 | 995.193 | 994.199 | 993.072 | 992.123 | 821.7
279.65 K | 999.075 | 998.186 | 997.235 | 996.681 | 996.124 | 995.158 | 994.162 | 993.023 | 992.067 | 821.3
280.15 K | 999.056 | 998.17 | 997.213 | 996.659 | 996.101 | 995.132 | 994.13 | 992.984 | 992.025 | 820.8
280.65 K | 999.032 | 998.146 | 997.189 | 996.631 | 996.074 | 995.095 | 994.093 | 992.943 | 991.972 | 820.3
281.15 K | 999.006 | 998.115 | 997.154 | 996.599 | 996.039 | 995.06 | 994.049 | 992.894 | 991.918 | 819.9
281.65 K | 998.97 | 998.079 | 997.123 | 996.561 | 996 | 995.021 | 994.007 | 992.846 | 991.86 | 819.4
282.15 K | 998.939 | 998.044 | 997.086 | 996.522 | 995.962 | 994.976 | 993.958 | 992.79 | 991.8 | 819
